In patent US8470868B2, “Formulation for the prevention of cardiovascular disease” (priority 2000, dated 2013):
Marks after values point to notes of the source that are not given here.

Experiments:
[1] = Prevalence of adverse effects in randomised placebo controlled trials (treated minus control); type: in vivo, human; conditions: daily dose: hydrochlorothiazide 12.5 mg, atenolol 25 mg, enalapril 5 mg, aspirin 75 mg; for Prevalence of any adverse effect in randomised trials (treated minus control) / Prevalence of serious adverse effects (those that warranted withdrawal from randomised trial) (treated minus control): atorvastatin 10 mg, folic acid 0.8 mg
Text: The dose of each medication has been chosen to maximise the ratio of benefit to hazard. It is recognised that some persons taking a combination of six drugs would develop adverse effects that were unacceptable. The adverse effects attributable to each of the component medications would be made clear to persons taking the combined formulation and alternative formulations omitting one or more of the component ingredients, with or without a substitute ingredient, would be available for persons unable to tolerate one component. […]

[2] = randomised trials, high risk and low risk persons; platelet function not measured; cited from earlier work
[3] = atorvastatin 10 mg daily; cited from earlier work
[4] = Expected reduction in risk of stroke from the risk factor change (cohort studies and randomised trials); type: in vivo, human; conditions: daily dose: hydrochlorothiazide 12.5 mg, atenolol 25 mg, enalapril 5 mg, atorvastatin 10 mg, aspirin 75 mg, folic acid 0.8 mg
Text: This combined estimate is based on the fact that the effects on the four different risk factors are unrelated and so the expected effects of changing each one will be independent of each other. This expectation is supported by two classes of evidence. […] For example the ratio of the risk of a disease event in persons with high blood pressure and the risk in persons with low blood pressure is similar, irrespective of the values of serum cholesterol and other risk factors. Second, some randomised clinical trials have used combinations of two of the drugs (for example beta blockers and aspirin) in patients with ischaemic heart disease and have shown that the effects are independent (that is, the relative risk in patients who took two drugs (compared with the risk in those who took none) was similar to the relative risk in persons taking one of the drugs multiplied by the relative risk in persons taking the other drug). Accordingly, the effect of the different drugs in combination in Table 3 has been calculated by multiplying the effects of each as shown in footnotes h and j.
The corresponding reductions in incidence of ischaemic heart disease and stroke are those to be expected from the blood pressure reductions, from published analyses of cohort studies and randomised controlled trials of blood pressure and ischaemic heart disease and stroke (references 1, 5).

[5] = cited from earlier work
[6] = Randomised controlled trials of folic acid: plasma homocysteine reduction; type: in vivo, human; conditions: unpublished randomised controlled trial performed by the applicant

| Structure (SMILES) | Prevalence of any adverse effect in randomised trials (treated minus control) [1] | Prevalence of serious adverse effects (those that warranted withdrawal from randomised trial) (treated minus control) [1] | Effect on the incidence of heart attacks and stroke [2] | Associated physiological variable (reduction produced by drug): serum cholesterol [3] | Expected reduction in risk of stroke [4] | Commonest adverse effects [1] | Associated physiological variable (reduction produced by drug): plasma/serum homocysteine ([5]; folic acid 0.8 mg daily) | Maximum reduction in plasma homocysteine ([5]; meta-analysis of published trials, folic acid doses between 1 mg and 5 mg, maximum produced by 1 mg) [µmol/L] | Lowest folic acid dose that produces the maximum reduction in homocysteine [6] [mg] |
| --- | --- | --- | --- | --- | --- | --- | --- | --- | --- |
| CC(=O)Oc1ccccc1C(=O)O [Aspirin] | 1.8%^b | 0.7%^b | reduces the incidence of heart attacks and stroke in both high risk and low risk persons | – | – | – | – | – | – |
| CC(C)NCC(O)COc1ccc(CC(N)=O)cc1 (centres unmarked) [Atenolol] | 5.6%^a | 0.9%^a | – | – | – | – | – | – | – |
| CC(C)c1c(C(=O)Nc2ccccc2)c(-c2ccccc2)c(-c2ccc(F)cc2)n1CC[C@@H](O)C[C@@H](O)CC(=O)O [Atorvastatin] | 0.1% | <0.1% | – | (1.8 mmol/l | 50%^d | – | – | – | – |
| CCOC(=O)[C@H](CCc1ccccc1)N[C@@H](C)C(=O)N1CCC[C@H]1C(=O)O [Enalapril] | 2.1%^a | 0.2%^a | – | – | – | cough | – | – | – |
| Nc1nc2ncc(CNc3ccc(C(=O)N[C@@H](CCC(=O)O)C(=O)O)cc3)nc2c(=O)[nH]1 [Folic acid] | <0.1% | <0.1% | – | – | 10%^g | – | (3 μmol/l | 3 | 0.8 |
| NS(=O)(=O)c1cc2c(cc1Cl)NCNS2(=O)=O [Hydrochlorothiazide] | 1.4%^a | 0.1%^a | – | – | – | – | – | – | – |
